Source: patent US20180094248A1, “Necroptosis Signaling as a Therapeutic Target for Alzheimer's Disease” (Arizona Board of Regents on behalf of Arizona State …, priority 2016, published 2018)

How the values were obtained:
[1] = test system: primary cortical neurons from APP/PS1 mice; assay: NeuN count of APP/PS1 primary cortical neurons treated with Nec-1S or vehicle; type: cell-based, mouse
Protocol: (§1) To probe for a direct link between necroptosis and neuronal loss in AD, we plated primary cortical neurons from APP/PS1 and wild type littermate mice. After seven days in vitro (DIV), neurons were treated with 10 μM of the necroptosis inhibitor 7-Cl-O-necrostatin (Nec15) or vehicle. Treatment was repeated at DIV 11. We then fixed neurons at DIV 11 and 15, and stained them for NeuN to count total number of neurons. […] To determine changes in necroptosis, we isolated proteins from neurons of the same four groups and measured the levels of total and phosphorylated MLKL by western blot.
Primary neuronal cultures—For the GFP experiments: Primary neurons were isolated from APP/PS1 and NonTg Po pups. The tissue was then dissociated in Neurobasal media (Thermo Fisher Scientific) and spun down for 3 minutes at 5,000 g at 4° C. The supernatant was discarded and the pellet was re-suspended in 1 ml of Neurobasal media supplemented with B27 (Thermo Fisher Scientific). […] Neurons were treated for a total of 15 days and the GFP fluorescence was measured every 4 days. […] All fluorescent measurements (excitation 488 nm, emission 509 nm) were performed using the Synergy HT multi-mode microplate reader with the Gen5 software (BioTek, Winooski, Vt.). The reader was pre-heated to 37° C. to maintain optimal conditions for the neurons during the measurements. […]

[2] = test system: phosphorylated MLKL; assay: Western blot of total and phosphorylated MLKL in primary neurons (NeuN experiment); type: cell-based, mouse
Protocol: as §1
Western blot and ELISA: The proteins were run using reducing conditions in precast gels (Thermo Fisher Scientific) and transferred to nitrocellulose membranes (iBlot, Thermo Fisher Scientific). […] The blots were then washed with TBS-T, and imaged/quantified using a LICOR Odyssey CLx (LI-COR Biosciences) attached to a Dell computer (OptiPlex 7010) running Windows 7 and Image Studio (version 1.0.11, LI-COR Biosciences). […]
Primary neuronal cultures—For the GFP experiments: Primary neurons were isolated from APP/PS1 and NonTg Po pups. […] Neurons were treated for a total of 15 days and the GFP fluorescence was measured every 4 days. […] All fluorescent measurements (excitation 488 nm, emission 509 nm) were performed using the Synergy HT multi-mode microplate reader with the Gen5 software (BioTek, Winooski, Vt.). […]

Compound: CN1C(=O)NC(Cc2c[nH]c3c(Cl)cccc23)C1=O (stereo not shown) [Nec1S, 5-((7-chloro-1 H-indol-3-yl)methyl)-3-methylimidazolidine-2,4-dione]
- number of NeuN-positive neurons ([1]; DIV 15, 10 μM at DIV 7 and DIV 11, APP/PS1-Nec1S vs APP/PS1-veh and WT groups): more neurons than the APP/PS1-veh group, and as many neurons as both WT groups
- in vitro cell death of APP/PS1 primary cortical neurons ([1]; overall conclusion of the two independent experiments (NeuN and GFP), 10 μM): reduces the accelerated in vitro cell death of APP/PS1 primary cortical neurons
- pMLKL level ([2]; DIV 11, all four groups, NeuN experiment): not detectable
- ratio pMLKL/MLKL ([2]; DIV 15, 10 μM, APP/PS1-veh group vs the other three groups incl. APP/PS1-Nec1S): statistically different compared to the other three groups
